Results: ChEMBL document CHEMBL5131502, “Improving the treatment of Parkinson's disease: Structure-based development of novel 5-HT2A receptor antagonists/inverse agonists” (Eur J Med Chem, 2022)
Converted amounts (≈) assume the structure as drawn.

Columns and labels:
[1] = Genotoxicity in Salmonella typhimurium TA97 in presence of rat liver S9 fraction by Ames test; assay type: toxicity, subcellular; conditions: salmonella enterica subsp. enterica serovar typhimurium
[2] = Aqueous solubility of compound at pH 7.4; assay type: physicochemical
[3] = Genotoxicity in Salmonella typhimurium TA98 in presence of rat liver S9 fraction by Ames test; assay type: toxicity, subcellular; conditions: salmonella enterica subsp. enterica serovar typhimurium
[4] = Genotoxicity in Salmonella typhimurium TA97 in absence of rat liver S9 fraction by Ames test; assay type: toxicity; conditions: salmonella enterica subsp. enterica serovar typhimurium
[5] = Metabolic stability in human liver microsomes assessed as half life at 100 uM preincubated for 10 mins followed by NADPH addition by LC/MS analysis; assay type: ADME, Microsome
[6] = Genotoxicity in Salmonella typhimurium TA100 in presence of rat liver S9 fraction by Ames test; assay type: toxicity, subcellular; conditions: salmonella enterica subsp. enterica serovar typhimurium
[7] = molecular target: Cytochrome P450 2D6 (Homo sapiens, UniProt P10635); assay: Inhibition of CYP2D6 (unknown origin); assay type: ADME
[8] = molecular target: T1, 5-hydroxytryptamine receptor 2A (Homo sapiens, UniProt P28223); assay: Displacement of [3H]-Ketanserin from human 5-HT2A receptor at 50 nM incubated for 1 hr by microbeta scintillation counter analysis
[9] = Dissociation constant, pKa of the compound; assay type: physicochemical
[10] = molecular target: 5-hydroxytryptamine receptor 2B (Homo sapiens, UniProt P41595); assay: Displacement of [3H]-LSD from human 5-HT2B receptor at 25 uM incubated for 1 hr by microbeta2 beta-counter analysis
[11] = Metabolic stability in Sprague-Dawley rat liver microsomes assessed as half life at 100 uM preincubated for 10 mins followed by NADPH addition by LC/MS analysis; assay type: ADME, Microsome
[12] = Plasma protein binding in human at 10 uM; assay type: ADME, cell-free; conditions: read-out: PPB (converted)
[13] = Plasma protein binding in rat at 10 uM; assay type: ADME, cell-free; conditions: read-out: PPB (converted)
[14] = Lipophilicity, logD of the compound at pH 7.4; assay type: physicochemical; conditions: buffer
[15] = molecular target: Cytochrome P450 2C19 (Homo sapiens, UniProt P33261); assay: Inhibition of CYP2C19 (unknown origin); assay type: ADME
[16] = Genotoxicity in Salmonella typhimurium TA102 in presence of rat liver S9 fraction by Ames test; assay type: toxicity, subcellular; conditions: salmonella enterica subsp. enterica serovar typhimurium
[17] = Drug distribution in Sprague-Dawley rat brain at 6 micromol/kg administered via gavage measured after 0.5 hr by LC-MS/MS analysis; assay type: ADME, tissue-based; conditions: in vivo, po, dose 6 µmol/kg
[18] = Metabolic stability in Sprague-Dawley rat liver microsomes assessed as compound remaining at 100 uM […] followed by NADPH addition by LC/MS analysis; assay type: ADME, Microsome; conditions: read-out: Stability
[19] = Toxicity in Sprague-Dawley rat assessed as apparent adverse effect at 20 to 60 mg/kg, po administered daily via gavage measured for 7 days; assay type: organism-based; conditions: in vivo, 168 h, dose 20-60 mg/kg, time 7 day
[20] = Drug distribution in Sprague-Dawley rat brain at 6 micromol/kg administered via gavage measured after 6 hrs by LC-MS/MS analysis; assay type: ADME, tissue-based; conditions: in vivo, po, dose 6 µmol/kg
[21] = Genotoxicity in Salmonella typhimurium TA100 in absence of rat liver S9 fraction by Ames test; assay type: toxicity; conditions: salmonella enterica subsp. enterica serovar typhimurium
[22] = Genotoxicity in Salmonella typhimurium TA1535 in presence of rat liver S9 fraction by Ames test; assay type: toxicity, subcellular; conditions: salmonella enterica subsp. enterica serovar typhimurium
[23] = Metabolic stability in human liver microsomes assessed as intrinsic clearance at 100 uM preincubated for 10 mins followed by NADPH addition by LC/MS analysis; assay type: ADME, Microsome; conditions: read-out: CLH
[24] = Metabolic stability in Sprague-Dawley rat liver microsomes assessed as intrinsic clearance at 100 uM preincubated for 10 mins followed by NADPH addition by LC/MS analysis; assay type: ADME, Microsome; conditions: read-out: CLH
[25] = Drug distribution in Sprague-Dawley rat brain at 6 micromol/kg administered via gavage measured after 2 hrs by LC-MS/MS analysis; assay type: ADME, tissue-based; conditions: in vivo, po, dose 6 µmol/kg
[26] = molecular target: Cytochrome P450 3A4 (Homo sapiens, UniProt P08684); assay: Inhibition of CYP3A4 (unknown origin); assay type: ADME
[27] = molecular target: T2, Cytochrome P450 1A2 (Homo sapiens, UniProt P05177); assay: Inhibition of CYP1A2 (unknown origin); assay type: ADME
T2 sequence (P05177 whole entry): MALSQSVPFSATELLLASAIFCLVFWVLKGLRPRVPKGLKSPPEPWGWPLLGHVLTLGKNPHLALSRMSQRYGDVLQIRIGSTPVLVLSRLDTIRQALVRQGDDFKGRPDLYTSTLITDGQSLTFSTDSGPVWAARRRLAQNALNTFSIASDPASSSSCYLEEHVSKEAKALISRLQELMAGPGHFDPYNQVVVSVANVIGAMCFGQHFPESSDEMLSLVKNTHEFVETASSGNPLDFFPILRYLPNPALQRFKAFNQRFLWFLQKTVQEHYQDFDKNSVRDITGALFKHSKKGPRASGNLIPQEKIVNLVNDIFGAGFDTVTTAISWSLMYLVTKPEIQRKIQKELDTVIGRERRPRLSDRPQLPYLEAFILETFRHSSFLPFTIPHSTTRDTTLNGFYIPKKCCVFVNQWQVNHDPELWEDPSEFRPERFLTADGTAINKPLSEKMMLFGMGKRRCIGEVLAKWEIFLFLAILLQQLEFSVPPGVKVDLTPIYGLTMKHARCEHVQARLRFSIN

[28] = Genotoxicity in Salmonella typhimurium TA1535 in absence of rat liver S9 fraction by Ames test; assay type: toxicity; conditions: salmonella enterica subsp. enterica serovar typhimurium
[29] = Toxicity in Sprague-Dawley rat assessed as animal death at 20 to 60 mg/kg, po administered daily via gavage measured for 7 days; assay type: organism-based; conditions: in vivo, 168 h, dose 20-60 mg/kg, time 7 day
[30] = Genotoxicity in Salmonella typhimurium TA102 in absence of rat liver S9 fraction by Ames test; assay type: toxicity; conditions: salmonella enterica subsp. enterica serovar typhimurium
[31] = molecular target: Voltage-gated inwardly rectifying potassium channel KCNH2 (Homo sapiens, UniProt Q12809); assay: Inhibition of hERG potassium channel expressed in CHO cells at -80 mV holding potential by whole cell patch clamp assay; assay type: toxicity, cell-based
[32] = Plasma protein binding in monkey at 10 uM; assay type: ADME, cell-free, Macaca mulatta; conditions: rhesus monkey, read-out: PPB (converted)
[33] = molecular target: T1, 5-hydroxytryptamine receptor 2A; assay: Inverse agonist activity at 5-HT2A receptor (unknown origin) expressed in mouse NIH3T3 cells using o-nitrophenyl-D-galacto pyranoside incubated for 120 hrs; assay type: functional, cell-based
[34] = molecular target: T3, 5-hydroxytryptamine receptor 2C (Homo sapiens, UniProt P28335); assay: Displacement of [3H]- Mesulergine from human 5-HT2C receptor at 300 nM incubated for 1 hr by microbeta2 beta-counter analysis
T3 sequence (P28335 whole entry): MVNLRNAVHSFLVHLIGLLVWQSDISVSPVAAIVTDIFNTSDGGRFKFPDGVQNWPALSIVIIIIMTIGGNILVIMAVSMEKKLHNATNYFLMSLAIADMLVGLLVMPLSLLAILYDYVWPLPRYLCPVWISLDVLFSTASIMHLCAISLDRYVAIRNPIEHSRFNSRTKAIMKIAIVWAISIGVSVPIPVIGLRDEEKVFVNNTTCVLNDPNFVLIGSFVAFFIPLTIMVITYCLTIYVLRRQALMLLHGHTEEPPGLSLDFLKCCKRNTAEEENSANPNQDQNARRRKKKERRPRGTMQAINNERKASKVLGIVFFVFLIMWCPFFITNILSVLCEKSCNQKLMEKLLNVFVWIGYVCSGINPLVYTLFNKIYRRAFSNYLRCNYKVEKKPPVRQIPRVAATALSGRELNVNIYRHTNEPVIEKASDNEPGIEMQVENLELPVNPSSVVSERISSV

[35] = molecular target: Cytochrome P450 2C9 (Homo sapiens, UniProt P11712); assay: Inhibition of CYP2C9 (unknown origin); assay type: ADME
[36] = Metabolic stability in human liver microsomes assessed as compound remaining at 100 uM […] followed by NADPH addition by LC/MS analysis; assay type: ADME, Microsome; conditions: read-out: Stability
[37] = Metabolic stability in dog liver microsomes assessed as compound remaining at 100 uM […] followed by NADPH addition by LC/MS analysis; assay type: ADME, Canis lupus familiaris, Microsome; conditions: read-out: Stability
[38] = Genotoxicity in Salmonella typhimurium TA98 in absence of rat liver S9 fraction by Ames test; assay type: toxicity; conditions: salmonella enterica subsp. enterica serovar typhimurium

T1 sequence (P28223 whole entry): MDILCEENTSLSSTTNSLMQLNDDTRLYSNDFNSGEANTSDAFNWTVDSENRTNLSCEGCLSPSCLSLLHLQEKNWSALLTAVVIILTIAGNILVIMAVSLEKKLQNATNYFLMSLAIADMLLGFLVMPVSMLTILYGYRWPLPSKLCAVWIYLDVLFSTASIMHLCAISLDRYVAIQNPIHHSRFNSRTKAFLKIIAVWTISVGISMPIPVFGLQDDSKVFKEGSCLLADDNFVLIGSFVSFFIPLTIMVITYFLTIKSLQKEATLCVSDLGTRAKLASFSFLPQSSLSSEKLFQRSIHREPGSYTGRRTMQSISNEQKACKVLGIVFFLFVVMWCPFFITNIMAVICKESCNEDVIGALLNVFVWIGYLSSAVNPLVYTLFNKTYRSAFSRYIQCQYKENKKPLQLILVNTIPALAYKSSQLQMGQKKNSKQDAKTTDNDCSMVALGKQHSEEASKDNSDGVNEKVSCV
Chain of Cytochrome P450 2C19 (P33261 whole entry): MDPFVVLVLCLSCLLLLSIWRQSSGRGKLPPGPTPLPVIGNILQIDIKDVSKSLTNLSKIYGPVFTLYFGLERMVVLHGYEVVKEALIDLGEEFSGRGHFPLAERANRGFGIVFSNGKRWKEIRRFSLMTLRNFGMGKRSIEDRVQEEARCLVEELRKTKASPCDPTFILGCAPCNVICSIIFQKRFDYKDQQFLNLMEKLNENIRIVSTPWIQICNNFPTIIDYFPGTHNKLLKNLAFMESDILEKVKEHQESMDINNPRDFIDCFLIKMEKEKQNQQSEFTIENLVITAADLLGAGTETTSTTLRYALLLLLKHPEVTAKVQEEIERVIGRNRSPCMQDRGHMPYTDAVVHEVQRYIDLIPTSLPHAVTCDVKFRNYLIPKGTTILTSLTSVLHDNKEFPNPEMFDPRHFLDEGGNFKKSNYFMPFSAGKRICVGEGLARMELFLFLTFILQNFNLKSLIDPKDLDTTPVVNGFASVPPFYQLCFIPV
Chain of Voltage-gated inwardly rectifying potassium channel KCNH2 (Q12809 whole entry): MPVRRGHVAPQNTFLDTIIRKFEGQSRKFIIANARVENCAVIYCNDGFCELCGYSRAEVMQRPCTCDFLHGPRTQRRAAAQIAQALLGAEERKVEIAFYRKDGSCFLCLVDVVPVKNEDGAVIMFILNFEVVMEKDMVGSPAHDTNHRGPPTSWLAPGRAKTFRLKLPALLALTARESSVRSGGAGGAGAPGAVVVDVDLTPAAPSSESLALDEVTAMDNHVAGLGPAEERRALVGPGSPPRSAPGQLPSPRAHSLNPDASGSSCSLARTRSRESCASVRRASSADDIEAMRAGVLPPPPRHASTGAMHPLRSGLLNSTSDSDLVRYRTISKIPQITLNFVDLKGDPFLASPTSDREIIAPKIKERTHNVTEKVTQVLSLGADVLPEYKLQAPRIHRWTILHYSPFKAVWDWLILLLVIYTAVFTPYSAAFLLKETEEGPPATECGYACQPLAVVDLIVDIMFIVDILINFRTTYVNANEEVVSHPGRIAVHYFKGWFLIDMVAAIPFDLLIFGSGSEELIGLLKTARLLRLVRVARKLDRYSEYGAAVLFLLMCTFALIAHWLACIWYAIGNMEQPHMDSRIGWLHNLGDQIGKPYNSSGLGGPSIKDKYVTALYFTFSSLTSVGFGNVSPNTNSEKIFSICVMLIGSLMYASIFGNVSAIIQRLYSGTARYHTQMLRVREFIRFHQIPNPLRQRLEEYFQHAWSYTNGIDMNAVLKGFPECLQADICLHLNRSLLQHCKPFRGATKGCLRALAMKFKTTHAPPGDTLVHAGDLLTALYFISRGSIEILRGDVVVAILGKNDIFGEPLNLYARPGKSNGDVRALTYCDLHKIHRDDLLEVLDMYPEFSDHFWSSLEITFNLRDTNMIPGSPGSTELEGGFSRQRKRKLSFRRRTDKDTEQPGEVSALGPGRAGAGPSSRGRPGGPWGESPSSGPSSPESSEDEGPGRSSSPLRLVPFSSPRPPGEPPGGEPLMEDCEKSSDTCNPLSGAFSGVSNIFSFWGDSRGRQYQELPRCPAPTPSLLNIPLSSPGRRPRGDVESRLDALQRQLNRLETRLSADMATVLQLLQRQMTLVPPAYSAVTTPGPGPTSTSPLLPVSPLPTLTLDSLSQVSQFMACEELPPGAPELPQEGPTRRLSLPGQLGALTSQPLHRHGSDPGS
Chain of Cytochrome P450 2D6 (P10635 whole entry): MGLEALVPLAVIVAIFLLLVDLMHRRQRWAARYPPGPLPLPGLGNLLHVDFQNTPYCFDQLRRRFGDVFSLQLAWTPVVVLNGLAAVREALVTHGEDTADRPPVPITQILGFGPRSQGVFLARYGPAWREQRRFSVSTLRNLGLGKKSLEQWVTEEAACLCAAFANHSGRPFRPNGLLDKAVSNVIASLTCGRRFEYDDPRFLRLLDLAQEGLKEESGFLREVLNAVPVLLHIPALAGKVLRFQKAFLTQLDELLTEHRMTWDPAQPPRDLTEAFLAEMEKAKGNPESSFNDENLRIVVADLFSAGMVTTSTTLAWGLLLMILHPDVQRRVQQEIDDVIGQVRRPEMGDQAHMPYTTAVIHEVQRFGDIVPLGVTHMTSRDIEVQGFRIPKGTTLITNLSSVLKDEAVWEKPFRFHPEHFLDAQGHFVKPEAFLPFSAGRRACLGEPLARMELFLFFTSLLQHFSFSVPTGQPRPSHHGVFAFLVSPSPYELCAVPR
Chain of 5-hydroxytryptamine receptor 2B (P41595 whole entry): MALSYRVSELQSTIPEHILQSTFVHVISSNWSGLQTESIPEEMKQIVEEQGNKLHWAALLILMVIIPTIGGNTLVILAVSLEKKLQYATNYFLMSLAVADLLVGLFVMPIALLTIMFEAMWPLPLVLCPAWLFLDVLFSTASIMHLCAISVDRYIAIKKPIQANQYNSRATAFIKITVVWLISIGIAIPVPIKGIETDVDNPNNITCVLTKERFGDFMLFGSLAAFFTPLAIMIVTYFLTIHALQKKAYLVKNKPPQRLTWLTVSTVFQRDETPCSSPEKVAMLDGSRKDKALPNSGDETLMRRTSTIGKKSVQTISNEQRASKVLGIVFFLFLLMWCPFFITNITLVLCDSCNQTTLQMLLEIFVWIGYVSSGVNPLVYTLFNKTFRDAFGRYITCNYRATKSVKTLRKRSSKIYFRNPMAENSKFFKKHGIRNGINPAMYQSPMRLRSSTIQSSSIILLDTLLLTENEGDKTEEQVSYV
Chain of Cytochrome P450 2C9 (P11712 whole entry): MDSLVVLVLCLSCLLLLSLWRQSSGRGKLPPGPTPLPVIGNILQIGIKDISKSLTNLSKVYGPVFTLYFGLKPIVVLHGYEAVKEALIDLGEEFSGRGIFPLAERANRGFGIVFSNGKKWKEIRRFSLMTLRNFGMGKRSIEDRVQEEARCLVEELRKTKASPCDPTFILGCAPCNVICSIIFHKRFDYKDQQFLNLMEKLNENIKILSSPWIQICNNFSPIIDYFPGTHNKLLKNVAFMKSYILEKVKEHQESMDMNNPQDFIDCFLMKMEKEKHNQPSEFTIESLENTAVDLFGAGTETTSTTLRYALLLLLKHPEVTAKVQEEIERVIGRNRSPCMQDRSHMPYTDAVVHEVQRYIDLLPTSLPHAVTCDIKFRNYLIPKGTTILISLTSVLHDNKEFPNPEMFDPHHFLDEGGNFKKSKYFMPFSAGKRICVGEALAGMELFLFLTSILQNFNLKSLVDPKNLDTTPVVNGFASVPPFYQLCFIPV
Chain of Cytochrome P450 3A4 (P08684 whole entry): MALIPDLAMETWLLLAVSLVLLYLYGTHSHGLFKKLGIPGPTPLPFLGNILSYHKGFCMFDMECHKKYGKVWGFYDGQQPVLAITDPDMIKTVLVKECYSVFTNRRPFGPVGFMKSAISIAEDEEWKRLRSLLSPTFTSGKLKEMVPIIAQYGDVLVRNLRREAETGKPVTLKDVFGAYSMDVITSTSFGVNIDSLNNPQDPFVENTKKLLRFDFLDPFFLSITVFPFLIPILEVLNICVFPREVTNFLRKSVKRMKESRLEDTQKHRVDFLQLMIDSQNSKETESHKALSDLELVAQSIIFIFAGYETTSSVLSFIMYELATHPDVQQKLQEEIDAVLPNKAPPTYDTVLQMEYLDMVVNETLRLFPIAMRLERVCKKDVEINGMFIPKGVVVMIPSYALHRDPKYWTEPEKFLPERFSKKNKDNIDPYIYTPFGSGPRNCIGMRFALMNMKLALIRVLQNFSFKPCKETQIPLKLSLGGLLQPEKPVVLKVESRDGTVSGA

Question: Which Activity [1] does the source give for `CN1CCC(N(Cc2ccc(F)cn2)C(=O)NCc2ccc(OCC(F)(F)F)cc2)CC1` here?
Answer: Non-Toxic

Question: And the solubility [2]?
Answer: 0.71 mg/mL (≈ 1560 µM)

Question: What about the Activity [3] of the same molecule?
Answer: Non-Toxic

Question: And the Activity [4]?
Answer: Non-Toxic

Question: What about the half-life at 100 µM [5] of the same molecule?
Answer: > 3.1 h

Question: And the Activity [6]?
Answer: Non-Toxic

Question: What about the IC50 [7] of the same molecule?
Answer: > 100 µM

Question: What about the Ki [8] of the same molecule?
Answer: 0.0002 µM

Question: What about the pKa [9] of the same molecule?
Answer: 8.51

Question: And the Ki [10]?
Answer: 0.139 µM

Question: What about the half-life at 100 µM [11] of the same molecule?
Answer: 1.72 h

Question: And the fraction unbound at 10 µM [12]?
Answer: 0.309

Question: What about the fraction unbound at 10 µM [13] of the same molecule?
Answer: 0.418

Question: What about the logD [14] of the same molecule?
Answer: 1.97

Question: And the IC50 [15]?
Answer: 62.9 µM

Question: What about the Activity [16] of the same molecule?
Answer: Non-Toxic

Question: And the Ct [17]?
Answer: 120 nmol/kg

Question: And the remaining at 100 µM [18]?
Answer: 66.5%

Question: And the Activity [19]?
Answer: Non-Toxic

Question: And the Ct [20]?
Answer: 100 nmol/kg

Question: What about the Activity [21] of the same molecule?
Answer: Non-Toxic

Question: What about the Activity [22] of the same molecule?
Answer: Non-Toxic

Question: What about the CLint scaled at 100 µM [23] of the same molecule?
Answer: < 0.402 L/h/kg

Question: What about the CLint scaled at 100 µM [24] of the same molecule?
Answer: 2.05 L/h/kg

Question: What about the Ct [25] of the same molecule?
Answer: 164 nmol/kg

Question: What about the IC50 [26] of the same molecule?
Answer: > 100 µM

Question: What about the IC50 [27] of the same molecule?
Answer: 8.5 µM

Question: What about the Activity [28] of the same molecule?
Answer: Non-Toxic

Question: And the Activity [29]?
Answer: Non-Toxic

Question: What about the Activity [30] of the same molecule?
Answer: Non-Toxic

Question: What about the IC50 [31] of the same molecule?
Answer: 1.1 µM

Question: And the fraction unbound at 10 µM [32]?
Answer: 0.383

Question: What about the IC50 [33] of the same molecule?
Answer: 0.0021 µM

Question: What about the Ki [34] of the same molecule?
Answer: 0.002 µM

Question: And the IC50 [35]?
Answer: > 100 µM

Question: What about the remaining at 100 µM [36] of the same molecule?
Answer: 89.2%

Question: And the remaining at 100 µM [37]?
Answer: 76.4%

Question: What about the Activity [38] of the same molecule?
Answer: Non-Toxic
